US20160256560A1, “Environmentally Sensitive Compositions” (priority 2010, published 2016)
“And” between values parts separate entries of the source, which are not always exact repeats. Equal values may be shown once. Read-outs that look alike come from different tables or passages of the source. *1 amine or outer side, *2 acyl side, *3 side chain or, on linkers, in order; H or OH if unused. Where a SMILES comes first, the peptide text is derived from it. Bridges are numbered along the chain shown (N, C = ends). Where no end group is shown, it is not given here. [ ]: non-standard residue; d: D form. ξ: configuration not given here. X3 = CN(C)c1ccc2c(c1)Oc1cc(N(C)C)ccc1C2=C1C=CC(=NC(=S)NC[C@](C)(O)C[C@H](N[*:1])C(=O)[*:2])C=C1C(=O)O; X2 = CCCCCCCC/C=C\CCCCCCCC(=O)OC[C@](C)(O)C[C@H](N[*:1])C(=O)[*:2]; Trp(2-yl) = O=C([C@H](Cc1c([*:3])[nH]c2ccccc12)N[*:1])[*:2]; ξTrp(2-yl) = O=C(C(Cc1c([*:3])[nH]c2ccccc12)N[*:1])[*:2]; X1 = CC(O)(CO)CC(N[*:1])C(=O)[*:2]; cisHyp = O=C(O)[C@@H]1C[C@H](O)CN1; ξAsp(3ξ-OH) = NC(C(=O)O)C(O)C(=O)O; Hyp = O=C(O)[CH]1C[CH](O)CN1

Legend:
HeLa cells [1] = type: cell-based, human; conditions: for antiproliferative effect at either pH: pH 6
[2] = pH 5.5
actin filaments = conditions: read-out: Kd, binding to actin filaments; cited from earlier work
[3] = not given; remark: listed apart in the source
tumor = assay: Animal studies of variants: tumor/organ fluorescence 4 and 24 h post-injection; conditions: after 24 hours
[4] = Stopped-flow fluorescence and CD kinetics of insertion/folding and exit/unfolding; type: physicochemical
tumors = tested on: tumors; parameters: species or system nude mice; conditions: mouse, in vivo
HeLa cells [5] = tested on: HeLa cells
HeLa-GFP cells = assay: Cellular uptake of nanogold (silver enhancement, image analysis); type: cell-based, human; conditions: 1 h
HeLa tumors = conditions: mouse, in vivo
[6] = tested on: luciferase pre-mRNA aberrant splice sites in HeLa cells; type: cell-based, human

Compound: CC[C@H](C)[C@H](NC(=O)[C@@H]1CCCN1C(=O)[C@H](CC(N)=O)NC(=O)[C@H](CCC(N)=O)NC(=O)[C@H](CCC(=O)O)NC(=O)[C@H](C)NC(=O)[C@H](C)N)C(=O)N[C@@H](Cc1ccc(O)cc1)C(=O)N[C@@H](Cc1c[nH]c2ccccc12)C(=O)N[C@@H](C)C(=O)N[C@@H](CCCNC(=N)N)C(=O)N[C@@H](Cc1ccc(O)cc1)C(=O)N[C@@H](C)C(=O)N[C@@H](CCC(=O)O)C(=O)N[C@@H](Cc1c[nH]c2ccccc12)C(=O)N[C@@H](CC(C)C)C(=O)N[C@@H](Cc1ccccc1)C(=O)N[C@H](C(=O)N[C@H](C(=O)N1CCC[C@H]1C(=O)N[C@@H](CC(C)C)C(=O)N[C@@H](CC(C)C)C(=O)N[C@@H](CC(C)C)C(=O)N[C@@H](CC(C)C)C(=O)N[C@@H](CC(=O)O)C(=O)N[C@@H](CC(C)C)C(=O)N[C@@H](C)C(=O)N[C@@H](CC(C)C)C(=O)N[C@@H](CC(C)C)C(=O)N[C@H](C(=O)N[C@@H](CC(=O)O)C(=O)N[C@@H](C)C(=O)N[C@@H](CC(=O)O)C(=O)N[C@@H](CCC(=O)O)C(=O)NCC(=O)N[C@H](C(=O)N[C@@H](CS)C(=O)NCC(=O)O)[C@@H](C)O)C(C)C)[C@@H](C)O)[C@@H](C)O [D14E]
- pH 8 Solubility: Y

Compound: CC[C@H](C)[C@H](NC(=O)[C@@H]1CCCN1C(=O)[C@H](CC(N)=O)NC(=O)[C@H](CCC(N)=O)NC(=O)[C@H](CCC(=O)O)NC(=O)[C@H](C)NC(=O)[C@H](C)N)C(=O)N[C@@H](Cc1ccc(O)cc1)C(=O)N[C@@H](Cc1c[nH]c2ccccc12)C(=O)N[C@@H](C)C(=O)N[C@@H](CCCNC(=N)N)C(=O)N[C@@H](Cc1ccc(O)cc1)C(=O)N[C@@H](C)C(=O)N[C@@H](CC(=O)O)C(=O)N[C@@H](Cc1c[nH]c2ccccc12)C(=O)N[C@@H](CC(C)C)C(=O)N[C@@H](Cc1ccccc1)C(=O)N[C@H](C(=O)N[C@H](C(=O)N1CCC[C@H]1C(=O)N[C@@H](CC(C)C)C(=O)N[C@@H](CC(C)C)C(=O)N[C@@H](CC(C)C)C(=O)N[C@@H](CC(C)C)C(=O)N[C@@H](C)C(=O)N[C@@H](CC(C)C)C(=O)N[C@@H](C)C(=O)N[C@@H](CC(C)C)C(=O)N[C@@H](CC(C)C)C(=O)N[C@H](C(=O)N[C@@H](CC(=O)O)C(=O)N[C@@H](C)C(=O)N[C@@H](CC(=O)O)C(=O)N[C@@H](CCC(=O)O)C(=O)NCC(=O)N[C@H](C(=O)N[C@@H](CS)C(=O)NCC(=O)O)[C@@H](C)O)C(C)C)[C@@H](C)O)[C@@H](C)O [D25A]
- pH 8 Solubility: N

Compound: CC1NC(=O)C2CC(O)CN2C(=O)C2CSc3[nH]c4ccccc4c3CC(NC1=O)C(=O)NC(CC(C)(O)CO)C(=O)NC(C(C)C)C(=O)NC(C(O)C(=O)O)C(=O)N2 (stereo not drawn) [phallacidin, reference compound] (cyclo([ξAsp(3ξ-OH)]C[Hyp]A[ξTrp(2-yl)][X1]V); thioether 2-5; configuration not given here)
- antiproliferative effect at either pH (HeLa cells [1]): does not demonstrate an antiproliferative effect at either pH
- Log P (octanol-water partition coefficient) [2]: −1.6

Compound: C[C@@H]1NC(=O)[C@H](C[C@@](C)(O)CNC(=S)N=C2C=CC(=C3c4ccc(N(C)C)cc4Oc4cc(N(C)C)ccc43)C(C(=O)O)=C2)NC(=O)[C@@H]2Cc3c([nH]c4ccccc34)SC[C@H](NC(=O)[C@@H]([C@H](C)O)NC1=O)C(=O)N1C[C@@H](O)C[C@H]1C(=O)N[C@@H](C)C(=O)N2 [phalloidin-TRITC] (cyclo(A[dT]C[cisHyp]A[Trp(2-yl)][X3]); thioether 3-6)
- Kd (actin filaments): 40 nM

Compound: CCCCCCCC/C=C\CCCCCCCC(=O)OC[C@](C)(O)C[C@@H]1NC(=O)[C@@H]2Cc3c([nH]c4ccccc34)SC[C@H](NC(=O)[C@@H]([C@H](C)O)NC(=O)[C@H](C)NC1=O)C(=O)N1C[C@@H](O)C[C@H]1C(=O)N[C@@H](C)C(=O)N2 [phalloidin-oleate] (cyclo(A[dT]C[cisHyp]A[Trp(2-yl)][X2]); thioether 3-6)
- inhibition of Hela cell proliferation rate (HeLa cells [1]; 1 µM): 60%
- inhibition of Hela cell proliferation rate (HeLa cells [1]; 2 µM): 70%
- inhibition of Hela cell proliferation rate (HeLa cells [1]; 4 µM): 95%
- Log P [2]: +1.7

Compound: AAEQNPIYWARYADWLFTTALLLLDLALLVDADEGT [P20A]
- Findings: solubility / aggregation ([3]; pH 8): Aggregates

Compound: AAEQNPIYWARYADWLFTTPLLLLDLALLVDADEGTCG [WT-Cys1]
- pKa (physchem): 6.14

Compound: AAEQNPIYWARYAEWLFTTPLLLLELALLVDADEGTCG [D14/25E]
- pH 8 Solubility: N

Compound: ACDDQNPWRAYLDLLFPTDTLLLDLLW [Var3-3D]
- retention in kidney (tumor): also retained in the kidney after 24 hours

Compound: ACEEQNPWARYLEWLFPTETLLLEL [Cys-Short-3E]
- retention in kidney (tumor): also retained in the kidney after 24 hours

Compound: ACEQNPIYWARYAKWLFTTPLLLLKLALLVDADEGTG [K-pHLIP]
- pH 8 Solubility: Y/N

Compound: ACEQNPIYWARYANWLFTTPLLLLNLALLVDADEGTG [N-pHLIP]
- pH 8 Solubility: Y

Compound: AEDQNDPI YWARYADWLFTTPLLLLELALLV EC--G-T-COOH [pHLIP-2E]
- A, frequency factor, first transition ([4]; pH 8): 1.2 × 10^5
- Ea, first transition ([4]; pH 8): 6.0 kcal/mol
- k1, rate constant ([4]; pH 8): 0.20/5.00 s^−1 and 0.28/3.57 s^−1 and 0.34/2.94 s^−1 and 0.39/2.56 s^−1
- t1, characteristic time ([4]; pH 8): 0.20/5.00 s and 0.28/3.57 s and 0.34/2.94 s and 0.39/2.56 s
- λmax, maximum position of fluorescence spectrum [3]: 339.2 nm
- λmax, maximum position of fluorescence spectrum ([3]; pH 8): 351.2 nm and 341.3 nm

Compound: AEDQNPYWARYADWLFTTPLLLLDLALLVDCG [Fast1-Cys]
- pKa (physchem): 6.1

Compound: AEQNPI YFARYADELFTTPLLLLDLALLW DADET-COOH [pHLIP-W3]
- characteristic time, first component, exit ([4]; pH 3.6): 0.06 s (14.9 s^−1)
- characteristic time, second component, exit ([4]; pH 3.6): 0.35 s (2.88 s^−1)
- rate constant, first component, exit ([4]; pH 3.6): 0.06 s (14.9 s^−1)
- rate constant, second component, exit ([4]; pH 3.6): 0.35 s (2.88 s^−1)

Compound: AEQNPIYWARYADWLFTTPL [Short-Cys]
- pKa (physchem): 4.4

Compound: Ac-AAEQNPIYWARYADWLFTTPLLLLDLALLVDADEGTKCG [pHLIP-KC]
- pH 8 Solubility: Y
- pKa (physchem): 6.16

Compound: DDDEDNPIYWARYADWLFTTPLLLLHGALLVDADECT [2H3 or D3a]
- pH 8 Solubility: Y

Compound: DDDEDNPIYWARYAHWLFTTPLLLLDGALLVDADECT [D3b]
- pH 8 Solubility: Y

Compound: DDDEDNPIYWARYAHWLFTTPLLLLHGALLVDADECT [2H2 or D2]
- pH 8 Solubility: Y

Compound: DDDEDNPIYWARYAHWLFTTPLLLLHGALLVNADECT [D1]
- pH 8 Solubility: Y

Compound: DDDEDNPIYWARYAHWLFTTPLLLLHGALLVNANECT [D0 or H2N2]
- pH 8 Solubility: Y

Compound: DDDEDNPIYWARYAHWLFTTPLLLLHGALLVNANECT [D0]
- pH 8 Solubility: Y

Compound: GGEQNPIYWAQDYAWLFTTPLLLLDLALLVDADEGTCG [R11Q; D14UpUp]
- pH 8 Solubility: Y

Compound: GGEQNPIYWAQYDAWLFTTPLLLLDLALLVDADEGTCG [R11Q; D14Up]
- pH 8 Solubility: Y

Compound: GGEQNPIYWARYADWLFTTPLLLDLLALLVDADEGTCG [D25Up]
- pH 8 Solubility: N

Compound: GGEQNPIYWARYADWLFTTPLLLLDLALLVDADEGT [WT-1]
- pKa (physchem): 6

Compound: GGEQNPIYWARYADWLFTTPLLLLDLALLVDADEGTCG [WT-Cys3]
- pH 8 Solubility: Y

Compound: GGEQNPIYWARYADWLFTTPLLLLDLALLVNANQGT [NNQ]
- pH 8 Solubility: Y

Compound: GGEQNPIYWARYADWLFTTPLLLLLDALLVDADEGTCG [D25Down]
- pH 8 Solubility: N

Compound: GGEQNPIYWARYDAWLFTTPLLLLDLALLVDADEGTCG [D14Up]
- pH 8 Solubility: Y

Compound: Gadolinium-tetraazacyclododecanetetraacetic acid [Gd-DOTA control]
- % T1 Change (3 hrs) (tumors): 5.27% and −3.05%
- % T1 Change (24 hrs) (tumors): 10.7% and 5.02%
- T1 3 hrs (tumors): 920.4 ms and 879.2 ms
- T1 24 hrs (tumors): 967.6 ms and 952.4 ms

Compound: Phallacidin-(CH2)n—SH, n=4 [phallC4SH]
- Log P (octanol-water partition coefficient) [2]: −0.74

Compound: Phallacidin-(CH2)n—SH, n=6 [phallC6SH]
- antiproliferative effect at either pH (HeLa cells [1]): does not demonstrate an antiproliferative effect at either pH

Compound: Phallacidin-(CH2)n—SH, n=10 [phallC10SH]
- Log P (octanol-water partition coefficient) [2]: +1.28

Compound: aminophalloidin [reference compound]
- inhibitory effect on M4A4 proliferation (M4A4 cells): no inhibitory effect
- inhibitory effect on HeLa proliferation (HeLa cells [5]): no inhibitory effect

Compound: gold-pHLIP: 1.4 nm monomaleimido Nanogold conjugated to N-terminal Cys of pHLIP (ACEQNPIYWARYADWLFTTPLLLLDLALLVDADET) (AC(1.4 nm monomaleimido Nanogold)EQNPIYWARYADWLFTTPLLLLDLALLVDADET)
- cellular uptake at pH6.5 versus pH7.4 (times higher) (HeLa-GFP cells; 2 μM): 1.6
- uptake of gold versus unmodified gold nanoparticles (times) (HeLa-GFP cells; pH6.5, 2 μM): 6.4
- uptake of gold versus unmodified gold nanoparticles (times) (HeLa-GFP cells; pH7.4, 2 μM): 3
- tumor/muscle ratio (HeLa tumors): 5.6
- gold in tumor versus gold nanoparticles alone (times) (HeLa tumors; iv): 6

Compound: pHLIP-S—S-CCTCTTACCTCAGTTACA (all peptide nucleic acid (PNA); pHLIP peptide disulfide-linked to the PNA, end not given here) [pHLIP-PNA construct]
- luciferase activity localized to tumor sites [6]: significantly higher luciferase activity
- uptake by cells in vivo compared to other constructs [6]: Significantly greater amounts

Compound: pHLIP-S—S—(CH2)6-phallacidin [pHLIP-C6phall]
- cell death (HeLa cells [1]): about 60%
- antiproliferative effect at neutral pH (HeLa cells [1]; pH 7.4): no effect is observed

Compound: phallacidin-(CH2)10NH2 [phallC10]
- Log P (octanol-water partition coefficient) [2]: +1.28
